Assay results taken from patent US10508104B2, “6-hydroxy-5-(phenyl/heteroarylsulfonyl)pyrimidin-4(1H)-one as APJ agonists” (Bristol-Myers Squibb Company, priority 2016, dated 2019).

molecular target: human APJ receptor (Homo sapiens (Human), UniProt P35414); assay: Intracellular cAMP accumulation assay (APJ hcAMP, HTRF); format: cell-based; settings: HEK293 cells stably expressing human APJ receptor; inhibition of forskolin-mediated cAMP production; read-out: Human APJ cAMP EC50 Potency range
Method in brief: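 HEK293 cells stably expressing human APJ, 5,000 per well, incubated 30 min at rt with compound, […] and 2 μM forskolin. cAMP measured by HTRF against a cAMP standard curve as inhibition of forskolin-driven production. EC50 from variable-slope sigmoidal fit.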

Chain of human APJ receptor (P35414 whole entry): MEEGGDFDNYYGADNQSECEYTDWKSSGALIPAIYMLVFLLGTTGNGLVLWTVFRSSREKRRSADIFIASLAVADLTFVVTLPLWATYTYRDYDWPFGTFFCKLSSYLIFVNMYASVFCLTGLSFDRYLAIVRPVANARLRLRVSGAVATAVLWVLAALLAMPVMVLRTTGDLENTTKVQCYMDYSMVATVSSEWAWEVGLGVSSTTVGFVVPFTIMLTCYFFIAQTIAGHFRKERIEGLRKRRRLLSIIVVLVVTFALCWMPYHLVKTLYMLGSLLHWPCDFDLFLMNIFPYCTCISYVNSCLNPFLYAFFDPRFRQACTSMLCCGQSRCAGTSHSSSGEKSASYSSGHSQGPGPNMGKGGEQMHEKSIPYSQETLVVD

EC50, 0.01 to 10 nM:
CC[C@@H](c1cccc(C#N)c1)n1c(CC2CC2)nc(=O)c(S(=O)(=O)c2ccc(-c3ccc(F)nc3C)cc2)c1O [Example 444, 3-[(1S)-1-[2-(cyclopropylmethyl)-5-[4-(6-fluoro-2-methylpyridin-3-yl)benzenesulfonyl]-6-hydroxy-4-oxo-1,4-dihydropyrimidin-1-yl]propyl]benzonitrile]
CCOCc1nc(=O)c(S(=O)(=O)c2ccc(-c3cccnc3C)cc2)c(O)n1[C@@H](CC)c1cccc(C#N)c1 [Example 445, 3-[(1S)-1-[2-(ethoxymethyl)-6-hydroxy-5-[4-(2-methylpyridin-3-yl)benzenesulfonyl]-4-oxo-1,4-dihydropyrimidin-1-yl]propyl]benzonitrile]
CCCCc1nc(=O)c(S(=O)(=O)c2ccc(-c3ccnc(F)c3C)cc2)c(O)n1[C@@H](CC)c1cc(F)cc(F)c1 [Example 446, 2-butyl-1-[(1S)-1-(3,5-difluorophenyl)propyl]-5-[4-(2-fluoro-3-methylpyridin-4-yl)benzenesulfonyl]-6-hydroxy-1,4-dihydropyrimidin-4-one]
CCCCc1nc(=O)c(S(=O)(=O)c2ccc(-c3ccncc3C)cc2)c(O)n1[C@H](c1cccc(C#N)c1)C(C)C [Example 447, 3-[(1S)-1-{2-butyl-6-hydroxy-5-[4-(3-methylpyridin-4-yl)benzenesulfonyl]-4-oxo-1,4-dihydropyrimidin-1-yl}-2-methylpropyl]benzonitrile]
CCCCc1nc(=O)c(S(=O)(=O)c2ccc(-c3cccnc3C)cc2)c(O)n1[C@H](c1cccc(C#N)c1)C(C)C [Example 448, 3-[(1S)-1-{2-butyl-6-hydroxy-5-[4-(2-methylpyridin-3-yl)benzenesulfonyl]-4-oxo-1,4-dihydropyrimidin-1-yl}-2-methylpropyl]benzonitrile]
CCCCc1nc(=O)c(S(=O)(=O)c2ccc(-c3cccnc3C)cc2)c(O)n1[C@@H](CC)c1cc(F)cc(C#N)c1 [Example 449, 3-[(1S)-1-{2-butyl-6-hydroxy-5-[4-(2-methylpyridin-3-yl)benzenesulfonyl]-4-oxo-1,4-dihydropyrimidin-1-yl}propyl]-5-fluorobenzonitrile]
CCCCc1nc(=O)c(S(=O)(=O)c2ccc(-c3ccncc3C)cc2)c(O)n1[C@@H](CC)c1cc(F)cc(C#N)c1 [Example 450, 3-[(1S)-1-{2-butyl-6-hydroxy-5-[4-(3-methylpyridin-4-yl)benzenesulfonyl]-4-oxo-1,4-dihydropyrimidin-1-yl}propyl]-5-fluorobenzonitrile]
CCCCc1nc(=O)c(S(=O)(=O)c2ccc(-c3ccnc(F)c3C)cc2)c(O)n1[C@H](c1cccc(C#N)c1)C(C)C [Example 451, 3-[(1S)-1-{2-butyl-5-[4-(2-fluoro-3-methylpyridin-4-yl)benzenesulfonyl]-6-hydroxy-4-oxo-1,4-dihydropyrimidin-1-yl}-2-methylpropyl]benzonitrile]
CCCCc1nc(=O)c(S(=O)(=O)c2ccc(-c3ccc(F)nc3C)cc2)c(O)n1[C@H](c1cccc(C#N)c1)C(C)C [Example 452, 3-[(1S)-1-{2-butyl-5-[4-(6-fluoro-2-methylpyridin-3-yl)benzenesulfonyl]-6-hydroxy-4-oxo-1,4-dihydropyrimidin-1-yl}-2-methylpropyl]benzonitriIe]
CCCCc1nc(=O)c(S(=O)(=O)c2ccc(-c3ccc(F)nc3C)cc2)c(O)n1[C@@H](CC)c1cc(F)cc(C#N)c1 [Example 453, 3-[(1S)-1-{2-butyl-5-[4-(6-fluoro-2-methylpyridin-3-yl)benzenesulfonyl]-6-hydroxy-4-oxo-1,4-dihydropyrimidin-1-yl}propyl]-5-fluorobenzonitrile]
CCCCc1nc(=O)c(S(=O)(=O)c2ccc(-c3ccc(F)nc3C)cn2)c(O)n1[C@@H](CC)c1cccc(C#N)c1 [Example 454, 3-[(1S)-1-[2-butyl-5-({6′-fluoro-2′-methyl-[3,3′-bipyridine]-6-yl}sulfonyl)-6-hydroxy-4-oxo-1,4-dihydropyrimidin-1-yl]propyl]benzonitrile]
CCCCc1nc(=O)c(S(=O)(=O)c2ccc(-c3cccnc3C)cn2)c(O)n1[C@@H](CC)c1cccc(C#N)c1 [Example 455, 3-[(1S)-1-[2-butyl-6-hydroxy-5-({2′-methyl-[3,3′-bipyridine]-6-yl}sulfonyl)-4-oxo-1,4-dihydropyrimidin-1-yl]propyl]benzonitrile]
CCCCc1nc(=O)c(S(=O)(=O)c2ccc(-c3ccnc(F)c3C)cn2)c(O)n1[C@@H](CC)c1cccc(C#N)c1 [Example 456, 3-[(1S)-1-[2-butyl-5-({2′-fluoro-3′-methyl-[3,4′-bipyridine]-6-yl}sulfonyl)-6-hydroxy-4-oxo-1,4-dihydropyrimidin-1-yl]propyl]benzonitrile]
CCCCc1nc(=O)c(S(=O)(=O)c2ccc(-c3ccncc3C)cn2)c(O)n1[C@@H](CC)c1cccc(C#N)c1 [Example 457, 3-[(1S)-1-[2-butyl-6-hydroxy-5-({3′-methyl-[3,4′-bipyridine]-6-yl}sulfonyl)-4-oxo-1,4-dihydropyrimidin-1-yl]propyl]benzonitrile]
CCCCc1nc(=O)c(S(=O)(=O)c2ccc(-c3ccnc(F)c3C)cc2)c(O)n1[C@@H](CC)c1cc(F)cc(C#N)c1 [Example 458, 3-[(1S)-1-{2-butyl-5-[4-(2-fluoro-3-methylpyridin-4-yl)benzenesulfonyl]-6-hydroxy-4-oxo-1,4-dihydropyrimidin-1-yl}propyl]-5-fluorobenzonitrile]
CCCCc1nc(=O)c(S(=O)(=O)c2ccc(-c3ccnc(F)c3C)cc2)c(O)n1C(c1cccc(C#N)c1)C1CC1 (centres unmarked) [Example 459, 3-({2-butyl-5-[4-(2-fluoro-3-methylpyridin-4-yl)benzenesulfonyl]-6-hydroxy-4-oxo-1,4-dihydropyrimidin-1-yl}(cyclopropyl)methyl) benzonitrile]
CCCCc1nc(=O)c(S(=O)(=O)c2ccc(-c3cccnc3C)cc2)c(O)n1C(c1cccc(C#N)c1)C1CC1 (centres unmarked) [Example 460, 3-({2-butyl-6-hydroxy-5-[4-(2-methylpyridin-3-yl)benzenesulfonyl]-4-oxo-1,4-dihydropyrimidin-1-yl}(cyclopropyl)methyl) benzonitrile]
CCCCc1nc(=O)c(S(=O)(=O)c2ccc(-c3ccc(F)nc3C)cc2)c(O)n1C(c1cccc(C#N)c1)C1CC1 (centres unmarked) [Example 461, 3-({2-butyl-5-[4-(6-fluoro-2-methylpyridin-3-yl)benzenesulfonyl]-6-hydroxy-4-oxo-1,4-dihydropyrimidin-1-yl}(cyclopropyl)methyl) benzonitrile]
CCCCc1nc(=O)c(S(=O)(=O)c2ccc(-c3ccncc3C)cc2)c(O)n1C(c1cccc(C#N)c1)C1CC1 (centres unmarked) [Example 462, 3-({2-butyl-6-hydroxy-5-[4-(3-methylpyridin-4-yl)benzenesulfonyl]-4-oxo-1,4-dihydropyrimidin-1-yl}(cyclopropyl)methyl) benzonitrile]
CCCCc1nc(=O)c(S(=O)(=O)c2ccc(-c3ccccc3C#N)cn2)c(O)n1[C@@H](CC)c1cccc(C#N)c1 [Example 463, 2-[6-({2-butyl-1-[(1S)-1-(3-cyanophenyl)propyl]-6-hydroxy-4-oxo-1,4-dihydropyrimidin-5-yl}sulfonyl)pyridin-3-yl]benzonitrile]
CCCCc1nc(=O)c(S(=O)(=O)c2ccc(-c3ccc(F)cc3C(N)=O)cn2)c(O)n1[C@@H](CC)c1cccc(C#N)c1 [Example 464, 2-[6-({2-butyl-1-[(1S)-1-(3-cyanophenyl)propyl]-6-hydroxy-4-oxo-1,4-dihydropyrimidin-5-yl)sulfonyl)pyridin-3-yl]-5-fluorobenzamide]
CCCCc1nc(=O)c(S(=O)(=O)c2ccc(-c3ccccc3C(N)=O)cc2)c(O)n1[C@@H](CC)c1cccc(C#N)c1 [Example 465, 4′-({2-butyl-1-[(1S)-1-(3-cyanophenyl)propyl]-6-hydroxy-4-oxo-1,4-dihydropyrimidin-5-yl}sulfonyl)-[1,1′-biphenyl]-2-carboxamide]
CCCCc1nc(=O)c(S(=O)(=O)c2ccc(-c3ccccc3C#N)cc2)c(O)n1[C@@H](CC)c1cccc(C#N)c1 [Example 466, 4′-({2-butyl-1-[(1S)-1-(3-cyanophenyl)propyl]-6-hydroxy-4-oxo-1,4-dihydropyrimidin-5-yl}sulfonyl)-[1,1′-biphenyl]-2-carbonitrile]
CCCCc1nc(=O)c(S(=O)(=O)c2ccc(-c3ccccc3C(N)=O)cn2)c(O)n1[C@@H](CC)c1cccc(C#N)c1 [Example 467, 2-[6-({2-butyl-1-[(1S)-1-(3-cyanophenyl)propyl]-6-hydroxy-4-oxo-1,4-dihydropyrimidin-5-yl}sulfonyl)pyridin-3-yl]benzamide]
CC[C@@H](c1cccc(C#N)c1)n1c(CC2CC2)nc(=O)c(S(=O)(=O)c2ccc(-c3ccccc3C(N)=O)cc2)c1O [Example 468, 4′-({1-[(1S)-1-(3-cyanophenyl)propyl]-2-(cyclopropylmethyl)-6-hydroxy-4-oxo-1,4-dihydropyrimidin-5-yl}sulfonyl)-[1,1′-biphenyl]-2-carboxamide]
CC[C@@H](c1cccc(C#N)c1)n1c(CC2CC2)nc(=O)c(S(=O)(=O)c2ccc(-c3ccc(F)cc3C(N)=O)cc2)c1O [Example 469, 4′-({1-[(1S)-1-(3-cyanophenyl)propyl]-2-(cyclopropylmethyl)-6-hydroxy-4-oxo-1,4-dihydropyrimidin-5-yl}sulfonyl)-4-fluoro-[1,1′-biphenyl]-2-carboxamide]
